# Data taken from patent US7348400B2 (priority 2001, dated 2008).
# “Also recorded” adds a separate entry of the source.
# Assays:
# [1] = test system: unmyelinated primary afferent sensory nerves; conditions: rat, in vivo
# [2] = test system: injured nerve (sensory nerves); conditions: rat, in vivo
# [3] = in vivo; cited from earlier work
# nAChR = assay type: binding, bovine
# [4] = test system: rats with chronic constriction injury; conditions: rat, in vivo
# [5] = rat, in vivo
# [6] = rat, in vivo; remark: listed apart in the source
# neuronal nAChR = assay type: cell-based, bovine
molecule,measurement,setting,value
CSCC[C@@H]1NC(=O)[C@H](CC(C)C)NC(=O)[C@H](CCCNC(=N)N)NC(=O)[C@H](CO)NC(=O)[C@@H]2CSSC[C@@H]3NC(=O)[C@H](CO)NC(=O)CNC(=O)[C@H]([C@@H](C)O)NC(=O)[C@H](CSSC[C@H](N)C(=O)N[C@@H](CCCCN)C(=O)NCC(=O)N[C@@H](CCCCN)C(=O)NCC(=O)N[C@@H](C)C(=O)N[C@@H](CCCCN)C(=O)N2)NC(=O)[C@H](CSSC[C@@H](C(N)=O)NC(=O)[C@H](CCCCN)NC(=O)CNC(=O)[C@H](CO)NC(=O)[C@H](CCCNC(=N)N)NC3=O)NC(=O)[C@H](CC(=O)O)NC(=O)[C@H](Cc2ccc(O)cc2)NC1=O [MVIIA],inhibition of the vascular response to LFES of sensory nerves,[1],significant inhibition; also recorded: more effective
same,recovery of vascular response to substance P compared to control,[2],54%
same,potency relative to morphine,[3],1000 times
GCCSD4 -HypRCNYDHPgammacarboxy-GluIC-NH2 [Vc1.1ptm],inhibition of sensory nerve activity (comparison),[1],less effective than Vc1.1
same,recovery of vascular response to substance P compared to control,[2],85%
same,displacement of 3H-epibatidine binding,nAChR,"displaced the first component, but did not significantly displace the second component"
same,long-term effectiveness in inhibiting neuropathic pain,[4],without effect; also recorded: but not Vc1.1ptm was effective
"CC[C@H](C)[C@@H]1NC(=O)[C@H](CCC(=O)O)NC(=O)[C@@H]2CCCN2C(=O)[C@H](Cc2cnc[nH]2)NC(=O)[C@H](CC(=O)O)NC(=O)[C@H](Cc2ccc(O)cc2)NC(=O)[C@H](CC(N)=O)NC(=O)[C@@H]2CSSC[C@H](NC(=O)CN)C(=O)N[C@@H](CSSC[C@@H](C(N)=O)NC1=O)C(=O)N[C@@H](CO)C(=O)N[C@@H](CC(=O)O)C(=O)N1CCC[C@H]1C(=O)N[C@@H](CCCNC(=N)N)C(=O)N2 [Vc1.1, GCCSDPRCNYDHPEIC-NH2]",adverse side-effects,[5],not observed any adverse side-effects
same,effect upon systemic blood pressure,[6],no effect
G C C S H P A C Y A N N Q D Y C-NH2 [An1.1],inhibition of the neuronal nicotinic response in cultured BCCs (comparison),neuronal nAChR,not nearly as inhibitory as Vc1.1
same,nature of the inhibition of nicotine-evoked catecholamine release,neuronal nAChR,competitive inhibitor
same,protection against nicotinic receptor desensitisation,neuronal nAChR,protects against nicotinic receptor desensitisation
